Test results as given in publication PMC4235314 (Scientific Reports, 2014).

T1: LmrR (Lactococcus lactis, UniProt A2RI36 1-116)
T1 sequence: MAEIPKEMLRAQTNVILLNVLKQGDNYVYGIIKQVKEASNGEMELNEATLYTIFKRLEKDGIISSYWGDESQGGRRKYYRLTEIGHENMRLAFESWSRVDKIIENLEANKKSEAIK


Assays:
LmrR [1] = target: T2, LmrR (Lactococcus cremoris, UniProt A2RI36); test: SPR (Biacore […], LmrR on NTA chip), kinetic […] Langmuir fit; assay type: binding; settings: pH 7.4, 25 C, 150 mM NaCl, 50 uM EDTA, 0.005% P-20; dimeric central pore, 1:1 stoichiometry
T2 construct: gene llmg_0323; full-length, synthetic codon-optimised gene in pET28b (NcoI/XhoI), C-terminal His6-tag kept, E. coli BL21(DE3), homodimer

LmrR [2] = target: T2, LmrR; test: SPR (Biacore […], LmrR on NTA chip), equilibrium one-site fit; assay type: binding; settings: pH 7.4, 25 C, 150 mM NaCl, 50 uM EDTA, 0.005% P-20; dimeric central pore, 1:1 stoichiometry
LmrR [3] = target: T1, LmrR; test: NMR; 1H-13C HMQC titration, Ile d1 CSPs; low-field shift of Ile-62 d1 13C; SPR: 10 mM HEPES pH 7.4, 150 mM NaCl, 50 uM EDTA, 0.005% surfactant P-20, 25 C (described for compounds); NMR: 10 mM NaPi pH 6.8, 100 mM NaCl, 298 K
LmrR [4] = target: T1, LmrR; test: SPR; LmrR immobilised on NTA chip; 1:1 Langmuir global fit; text states only 'μM affinity', number in figure; SPR: 10 mM HEPES pH 7.4, 150 mM NaCl, 50 uM EDTA, 0.005% surfactant P-20, 25 C (described for compounds); NMR: 10 mM NaPi pH 6.8, 100 mM NaCl, 298 K

| Molecule | KD (LmrR [2]) | further results |
| --- | --- | --- |
| CCOc1ccc(-c2nc3ccc(-c4nc5ccc(N6CCN(C)CC6)cc5[nH]4)cc3[nH]2)cc1 [Hoechst 33342] |  | KD (LmrR [1]): SPR analyses indicated that these compounds bind to LmrR with various affinities |
| CCN=c1cc2oc3cc(NCC)c(C)cc3c(-c3ccccc3C(=O)OCC)c-2cc1C [rhodamine 6G] | SPR analyses indicated that these compounds bind to LmrR with various affinities |  |
| CC[n+]1c(-c2ccccc2)c2cc(N)ccc2c2ccc(N)cc21 [ethidium] | SPR analyses indicated that these compounds bind to LmrR with various affinities |  |
| COc1cccc2c1C(=O)c1c(O)c3c(c(O)c1C2=O)C[C@@](O)(C(C)=O)C[C@@H]3O[C@H]1C[C@H](N)[C@H](O)[C@H](C)O1 [daunomycin] | The KD values for H33342 and daunomycin were consistent with those previously reported |  |
| lmrCD oligo (33-bp promoter fragment) (dsDNA) DNA 1: CAATTTAATGTAAAGTAGTTTACATTATTTAAC DNA 2: GTTAAATAATGTAAACTACTTTACATTAAATTG |  | binding result (LmrR [3]): binds; binding result (LmrR [4]): binds |
